This note sets out measurements from ChEMBL document CHEMBL3039007, “Structure-based identification of OATP1B1/3 inhibitors” (Mol Pharmacol, 2013).

Molecules are shown by their SMILES.

For series [1], the target named is T1, Solute carrier organic anion transporter family member 1B3 (Homo sapiens, UniProt Q9NPD5).
T1 sequence (Q9NPD5 whole entry): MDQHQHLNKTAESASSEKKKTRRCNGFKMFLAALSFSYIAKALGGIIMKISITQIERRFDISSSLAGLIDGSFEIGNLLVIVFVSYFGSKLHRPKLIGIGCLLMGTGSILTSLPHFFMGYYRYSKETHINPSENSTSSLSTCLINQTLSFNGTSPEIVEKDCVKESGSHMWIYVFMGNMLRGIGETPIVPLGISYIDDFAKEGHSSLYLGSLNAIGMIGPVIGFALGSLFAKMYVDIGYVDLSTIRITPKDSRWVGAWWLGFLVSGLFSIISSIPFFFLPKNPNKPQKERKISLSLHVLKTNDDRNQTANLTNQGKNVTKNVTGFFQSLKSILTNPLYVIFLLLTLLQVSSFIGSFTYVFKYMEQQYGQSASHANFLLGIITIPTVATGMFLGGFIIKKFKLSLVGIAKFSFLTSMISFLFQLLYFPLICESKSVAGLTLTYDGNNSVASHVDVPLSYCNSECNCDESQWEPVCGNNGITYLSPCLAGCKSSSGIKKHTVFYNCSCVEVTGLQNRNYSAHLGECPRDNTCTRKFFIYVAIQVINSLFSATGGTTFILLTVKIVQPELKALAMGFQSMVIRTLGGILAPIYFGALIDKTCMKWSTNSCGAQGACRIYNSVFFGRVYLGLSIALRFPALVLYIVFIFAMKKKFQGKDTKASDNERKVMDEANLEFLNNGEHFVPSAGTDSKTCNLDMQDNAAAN
Particulars: chinese hamster, cho, 10 µM.

The target in series [2] is T1, Solute carrier organic anion transporter family member 1B3.
Series [3] addresses T2, Solute carrier organic anion transporter family member 1B1 (Homo sapiens, UniProt Q9Y6L6).
T2 sequence (Q9Y6L6 whole entry): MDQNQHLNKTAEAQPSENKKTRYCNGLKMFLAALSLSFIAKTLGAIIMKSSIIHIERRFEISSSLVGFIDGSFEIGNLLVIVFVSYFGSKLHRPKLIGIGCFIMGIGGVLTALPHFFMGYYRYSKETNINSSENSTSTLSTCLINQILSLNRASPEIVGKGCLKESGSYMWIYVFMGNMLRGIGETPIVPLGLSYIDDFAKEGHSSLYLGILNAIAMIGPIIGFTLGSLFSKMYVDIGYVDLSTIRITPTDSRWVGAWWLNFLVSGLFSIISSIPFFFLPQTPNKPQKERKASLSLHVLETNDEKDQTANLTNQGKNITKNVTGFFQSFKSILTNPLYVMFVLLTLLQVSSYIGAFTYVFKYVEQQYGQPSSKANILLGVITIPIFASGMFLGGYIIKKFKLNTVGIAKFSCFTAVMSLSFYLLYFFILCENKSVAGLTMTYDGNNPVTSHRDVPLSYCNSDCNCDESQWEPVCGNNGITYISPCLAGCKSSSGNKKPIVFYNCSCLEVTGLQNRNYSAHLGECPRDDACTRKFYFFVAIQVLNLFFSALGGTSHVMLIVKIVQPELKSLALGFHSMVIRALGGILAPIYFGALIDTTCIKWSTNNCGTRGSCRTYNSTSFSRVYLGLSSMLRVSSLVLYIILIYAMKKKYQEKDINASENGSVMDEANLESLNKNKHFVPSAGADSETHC
Particulars: chinese hamster, cho, 10 µM.

For series [4], the target named is T1, Solute carrier organic anion transporter family member 1B3. This is another data set of the same source.
Series [5] has as its target T2, Solute carrier organic anion transporter family member 1B1.
Series [6] shares this target. The source holds these as a separate data set.

As usually defined, the residual activity is the signal under treatment as a percentage of the control signal. Low readings indicate little activity left, high ones much activity left. What is called Ki is the equilibrium dissociation constant of an inhibitor or competing ligand from its target. Read a high Ki as weaker binding. As a reminder, the IC50 is the concentration needed to halve the response being measured. Lower therefore signals inhibition by little substance. As to `CC(C)=CCCC1(C)C=Cc2c(O)c3c(c(CC=C(C)C)c2O1)OC12C(=CCCC1C(C)(C)O[C@@]2(C/C=C(\C)C(=O)O)C(=O)O)C3=O` (some centres not stated) [GARCINOLIC ACID], the residual activity came out at 3.626% in series [1] and 30.6% in series [3]. Besides, the inhibition constant Ki in series [2] worked out at 1730 nM; in series [5] it was 650 nM. Also, the IC50 in series [4] is 2240 nM; in series [6] it was 1170 nM.

Consider `CC(=O)O[C@@H]1C[C@@]2(C)[C@H](c3ccoc3)C[C@H]3O[C@]32[C@]2(C)C(=O)C(O)=C3C(C)(C)C(=O)C=C[C@]3(C)C12` (some centres not stated) [ANTHOTHECOL], for which the results for the residual activity in series [1] and in series [3] were 12.42% and 20.37%, respectively. The Ki in series [2] was 2640 nM; in series [5], 1650 nM. Besides, the IC50 in series [4] was 3470 nM; in series [6], 3020 nM.

For the compound `C=C1[C@@H]([C@@]2(C)[C@@H](OC(C)=O)CC(=O)O[C@](C)(COC(C)=O)[C@@H]2C(=O)OC)[C@@H](OC=O)[C@H](OC(=O)[C@H](O)[C@H](C)CC)[C@@]2(C)[C@H](c3ccoc3)CC(=O)[C@]12O` [PRIEURIANIN], the residual activity is 25.49% in series [1] and 22.79% in series [3]. In addition, the Ki stood at 2630 nM in series [2] and 1280 nM in series [5]. The figures for the half-inhibitory concentration (IC50) in series [4] and in series [6] were 3390 nM and 2340 nM, respectively.

As to `CC(C)=CCCC1(C)C=Cc2c(O)c3c(c(CC=C(C)C)c2O1)OC12C(=CC4CC1C(C)(C)OC2(C/C=C(/C)C(=O)O)C4O)C3=O` (configuration not stated) [DIHYDROGAMBOGIC ACID], the residual activity in series [1] amounted to 17.26%; in series [3], 14.23%. Also, the inhibitory constant (Ki) in series [2] came to 2240 nM; in series [5] it was 1230 nM. In addition, the concentration for half-maximal inhibition (IC50) in series [4] is 2880 nM; in series [6] it was 2240 nM.

For the compound `COc1c(CC=C(C)C)c2c(c3oc(=O)c(-c4ccc(O)cc4)c(O)c13)C=CC(C)(C)O2` [SCANDENIN], the residual activity in series [1] is 9.001%; in series [3], 13.79%. The inhibition constant (Ki) in series [2] came out at 560 nM; in series [5] it was 590 nM. Further, the 50% inhibitory concentration (IC50) in series [4] was 741 nM; in series [6] it was 1070 nM.

For the compound `O=C(OC[C@H]1O[C@@H](OC(=O)c2cc(O)c(O)c(OC(=O)c3cc(O)c(O)c(O)c3)c2)[C@H](OC(=O)c2cc(O)c(O)c(OC(=O)c3cc(O)c(O)c(O)c3)c2)[C@@H](OC(=O)c2cc(O)c(O)c(OC(=O)c3cc(O)c(O)c(O)c3)c2)[C@@H]1OC(=O)c1cc(O)c(O)c(OC(=O)c2cc(O)c(O)c(O)c2)c1)c1cc(O)c(O)c(OC(=O)c2cc(O)c(O)c(O)c2)c1` [TANNIC ACID], the results for the residual activity in series [1] and in series [3] were 10.59% and 18.66%, respectively. Moreover, the Ki in series [2] amounted to 3230 nM; in series [5], 1460 nM. In addition, the half-inhibitory concentration (IC50) in series [4] is 4170 nM; in series [6], 2630 nM.

As for `C=C1[C@@H]2CC[C@@]3(C)[C@H](c4ccoc4)OC(=O)C[C@]13O[C@H]1C[C@H](OC(C)=O)C(C)(C)[C@H](CC(=O)OC)[C@]12C`, the values for the residual activity in series [1] and in series [3] were 21.87% and 13.98%, respectively. For the same compound, the Ki in series [2] was 3470 nM; in series [5], 510 nM. For the same compound, the values for the concentration for half-maximal inhibition (IC50) in series [4] and in series [6] were 4470 nM and 933 nM, respectively.

Consider `CC[C@@H](C(=O)[C@@H](C)[C@@H](O)[C@H](C)CCc1ccc(C)c(O)c1C(=O)[O-])[C@H]1O[C@](CC)([C@H]2CC[C@](O)(CC)[C@H](C)O2)C[C@@H]1C.[Na+]` [LASALOCID A SODIUM], for which the residual activity in series [1] was determined as 6.678%; in series [3] it was 10.29%. The values for the Ki in series [2] and in series [5] were 590 nM and 260 nM, respectively. Also, the half-inhibitory concentration (IC50) in series [4] is 776 nM; in series [6] it was 479 nM.

As to `CC(C)=CCC[C@]1(C)C=Cc2c(O)c3c(c(CC=C(C)C)c2O1)O[C@]12C(C[C@@H]4C[C@H]1C(C)(C)O[C@@]2(C/C=C(/C)C(=O)O)C4O)C3=O` (some centres not stated), the figures for the residual activity in series [1] and in series [3] were 4.414% and 12.48%, respectively. The Ki in series [2] was determined as 2160 nM; in series [5] it was 1100 nM. Besides, the IC50 was 2820 nM in series [4] and 2000 nM in series [6].

For the compound `CC(=O)O[C@H]1C[C@@H](OC(C)=O)C(C)(C)[C@@H]2C[C@@H](OC(C)=O)[C@]3(C)[C@H]([C@H](OC(C)=O)C[C@@]4(C)[C@H](c5ccoc5)OC(=O)[C@H]5O[C@@]534)[C@@]12C`, the values for the residual activity in series [1] and in series [3] were 46.1% and 20.57%, respectively. For the same compound, the values for the Ki in series [2] and in series [5] were 3050 nM and 480 nM, respectively. Moreover, the half-maximal inhibitory concentration (IC50) was 3980 nM in series [4] and 871 nM in series [6].

As for `O=C(O[C@@H]1Cc2c(O)cc(O)cc2O[C@@H]1c1cc(O)c(O)c(O)c1-c1c([C@H]2Oc3cc(O)cc(O)c3C[C@H]2O)cc(O)c(O)c1O)c1cc(O)c(O)c(O)c1` [2',2'-BISEPIGALLOCATECHIN MONOGALLATE], the residual activity is reported as 18.79% in series [1] and 31.07% in series [3]. For the same compound, the Ki amounted to 6500 nM in series [2] and 2050 nM in series [5]. The figures for the concentration for half-maximal inhibition (IC50) in series [4] and in series [6] were 8510 nM and 3720 nM, respectively.

Consider `CC(C)CCCC1(C)C=Cc2c(O)c3c(c(CCC(C)C)c2O1)OC12C(CC4CC1C(C)(C)OC2(CCC(C)C(=O)O)C4O)C3=O` (configuration not stated) [DECAHYDROGAMBOGIC ACID], for which the residual activity in series [1] came out at 18.17%; in series [3], 12.82%. Moreover, the Ki was determined as 1770 nM in series [2] and 620 nM in series [5]. Further, the figures for the IC50 in series [4] and in series [6] were 2290 nM and 1150 nM, respectively.

Turning to `Cc1onc(-c2c(Cl)cccc2Cl)c1C(=O)N[C@@H]1C(=O)N2[C@@H]1SC(C)(C)[C@@H]2C(=O)[O-].O.[Na+]` [DICLOXACILLIN SODIUM], the results for the residual activity in series [1] and in series [3] were 9.757% and 11.45%, respectively. The inhibition constant (Ki) was 1550 nM in series [2] and 370 nM in series [5]. Also, the figures for the half-inhibitory concentration (IC50) in series [4] and in series [6] were 2000 nM and 676 nM, respectively.

Turning to `CC(=O)O[C@@H]1C[C@@H]2C(C)(C)[C@H](O)C=C[C@@]2(C)[C@@H]2CC[C@@]3(C)C(=CC(=O)O[C@@H]3c3ccoc3)[C@@]12C`, the residual activity in series [1] turned out to be 23.16%; in series [3] it was 6.132%. Moreover, the inhibition constant Ki in series [2] is 2890 nM; in series [5], 1210 nM. In addition, the figures for the IC50 in series [4] and in series [6] were 3720 nM and 2190 nM, respectively.

In the case of `COC(=O)CC[C@@H](C)[C@H]1CC[C@H]2[C@@H]3[C@H](O)C[C@@H]4C[C@H](O)CC[C@]4(C)[C@H]3C[C@H](O)[C@]12C` [CHOLIC ACID, METHYL ESTER], the residual activity was determined as 40.87% in series [1] and 26.02% in series [3]. Moreover, the Ki stood at 2890 nM in series [2] and 4580 nM in series [5]. The half-inhibitory concentration (IC50) was 3720 nM in series [4] and 8320 nM in series [6].

As to `CCOC(=O)CCC(=O)O[C@H]1[C@H](O[C@@H]2[C@@H](C)[C@H](O[C@H]3C[C@@](C)(OC)[C@@H](O)[C@H](C)O3)[C@@H](C)C(=O)O[C@H](CC)[C@@](C)(O)[C@H](O)[C@@H](C)C(=O)[C@H](C)C[C@@]2(C)O)O[C@H](C)C[C@@H]1N(C)C` [ERYTHROMYCIN ETHYLSUCCINATE], the residual activity is on record as 30.5% in series [1] and 3.592% in series [3]. Moreover, the Ki in series [2] came out at 1610 nM; in series [5], 1670 nM. Further, the IC50 in series [4] is 2090 nM; in series [6] it was 3020 nM.

For the compound `Cc1cc(O)c(C=O)c2c1C(=O)Oc1c(C)c(O)c3c(c1O2)C(O)OC3=O` (configuration not stated) [NORSTICTIC ACID], the residual activity in series [1] came to 1.823%; in series [3], 10.9%. Besides, the Ki in series [2] turned out to be 420 nM; in series [5] it was 630 nM. Besides, the figures for the concentration for half-maximal inhibition (IC50) in series [4] and in series [6] were 550 nM and 1150 nM, respectively.
